Experimental data published in patent US8741932B2, “Imidazopyridine derivatives” (Piramal Enterprises Limited, priority 2009, dated 2014).

Legend:
Format in all cases: cell-based
[1] = system: IL-6; assay: Synovial tissue assay, IL-6; details: Homo sapiens; synovial tissue cells from rheumatoid arthritis patients, 16 hours
Description: (§1) The assay was designed as in the reference, Lancet, 2(8657), 244-7, Jul.
(§2) Stock Solution: Compounds of the present invention were dissolved in DMSO to obtain a stock solution of 20 mM.
(§3) Synovial tissue was obtained from rheumatoid arthritis patients undergoing knee replacement surgery. The tissue was minced into small pieces and digested in RPMI medium containing 100 U/ml penicillin-G, 100 μg/ml streptomycin, 50 ng/ml amphotericin B (GIBCO; USA), 1.33 mg/ml collagenase Type I (Worthington Biochemical Corporation, New Jersey), 0.5 μg/ml DNAse Type I (Sigma Aldrich; St. Louis, Mo.) and 8.33 U/ml heparin (Biological E. Limited, India) for 3 hours at 37° C., 5% CO2. The digested tissue was filtered through a membrane (mesh size 70 micron; Sigma Aldrich). Subsequently, the cells were washed 3 times and resuspended in complete medium (RPMI supplemented with 5% FBS and 5% human serum-AB+) at a concentration of 1×10^6 cells/ml. All cell washes in this assay were performed using Rosewall Park Memorial Institute (RPMI)-1640 medium (JRH; Australia). For the experiment, 100 μl of cell suspension was added to the wells of a 96-well culture plate. Following cell plating, 100 μl of the culture medium and 1 μl of various concentrations (0.01, 0.03, 0.1, 0.3, 1, 3, 10, 30 and 100 μM) of the compounds of present invention dissolved in DMSO were added to the cells. The final concentration of DMSO was adjusted to 0.5%. For experimental purposes, 1 μl of […] concentrated solution of the compounds of present invention were dissolved in 200 μl cell suspension to achieve a final concentration of 0.01, 0.03, 0.1, 0.3, 1, 3, 10, 30 and 100 μM. The vehicle (0.5% DMSO) was used as control. 10 μM dexamethasone (Sigma Aldrich) or 1 μM 7-hydroxyfluorinide (7HF) were used as standards for the experiments. The plates were incubated for 16 hours at 37° C., 5% CO2. Subsequently, the supernatants were harvested and stored at −70° C. The amounts of TNF-α, IL-6 and interleukin-8 (IL-8) in the supernatants were assayed using OptiEIA ELISA sets, (BD BioSciences Pharmingen). The protocol followed was as per manufacturers instructions. […] The cytotoxicity of test compounds in synovial cells was assessed by MTS assay. Absorbance was measured at 490 nm. Percent cytotoxicity was calculated by the equation: % Cytotoxicity=(A−B)/A×100 where, A is the absorbance of cells treated with DMSO alone and B is the absorbance of cells treated with the test article.

[2] = system: A549; assay: Cytotoxicity assay (propidium iodide), A549; details: Homo sapiens; A549 (C1a, lung); 48 hours
Description: (§4) Cells from cell lines as mentioned in the table given below were seeded at a density of 3000 cells/well in a white opaque 96-well plate. Following incubation at 37° C./5% CO2 for a period of 18-24 hours, the cells were treated with various concentrations (stock solution was prepared in DMSO and subsequent dilutions were made in media as per ATCC guidelines) of the representative compounds of present invention (refer table 3) for a period of 48 hours. At the end of treatment, the spent culture medium was discarded, the cells were washed with 1×PBS and 200 μl of 7 μg/ml propidium iodide was added to each well. The plates were frozen at −70° C. for at least 24 hours. For analysis, the plates were brought to RT, allowed to thaw and were read in PolarStar fluorimeter with the fluorescence setting. The percentage of viable cells in the non treated set of wells was considered to be 100 and the percentage viability following treatment was calculated accordingly. IC50 values were calculated from graphs plotted using these percentages.

[3] = system: T47D; assay: Cytotoxicity assay (propidium iodide), T47D; details: Homo sapiens; T47D (C6e, breast); 48 hours
Description: as §4

[4] = system: PANC 1; assay: Cytotoxicity assay (propidium iodide), PANC 1; details: Homo sapiens; PANC 1 (C5a, pancreatic); 48 hours
Description: as §4

[5] = system: HCT116; assay: Cytotoxicity assay (propidium iodide), HCT116; details: Homo sapiens, HCT-116; HCT116 (C4b, colon); 48 hours
Description: as §4

[6] = system: A2780; assay: Cytotoxicity assay (propidium iodide), A2780; details: Homo sapiens; A2780 (C3a, ovarian); 48 hours
[7] = system: OVCAR 3; assay: Cytotoxicity assay (propidium iodide), OVCAR 3; details: Homo sapiens; OVCAR 3 (C3c, ovarian); 48 hours
Description: as §4

[8] = system: CAPAN1; assay: Cytotoxicity assay (propidium iodide), CAPAN1; details: Homo sapiens, CAPAN-1; CAPAN1 (C5b, pancreatic); 48 hours
Description: as §4

[9] = system: IL-8; assay: Synovial tissue assay, IL-8; details: Homo sapiens; synovial tissue cells from rheumatoid arthritis patients, 16 hours
Description: as §1, §2, §3

[10] = system: TNF-α; assay: Human monocyte assay, LPS-stimulated TNF-α; details: human monocytes, 1 μg/ml LPS, 5 hours
Description: The assay was designed as in the reference, Physiol.
Peripheral blood mononuclear cells (hPBMC) were harvested from human blood and suspended in RPMI 1640 culture medium containing 10% FCS, 100 U/mL penicillin and […] streptomycin (assay medium). Monocytes in the hPBMCs were counted using a Coulter Counter following which the cells were resuspended at 2×10^5 monocytes/mL. A cell suspension containing 2×10^4 monocytes was aliquoted per well of a 96-well plate. Subsequently, the hPBMCs were incubated for 4-5 hours at 37° C., 5% CO2 (During the incubation, the monocytes adhered to the bottom of 96-well plastic culture plate). Following the incubation, the non-adherent lymphocytes were washed with assay medium and the adherent monocytes re-fed with assay medium. After a 48-hour incubation period (37° C., 5% CO2), monocytes were pretreated with various concentrations of representative compounds of present invention (refer to table 6 and 7) (prepared in DMSO) or vehicle (0.5% DMSO) for 30 minutes and stimulated with 1 μg/ml LPS (Escherchia coli 0111:B4, Sigma Chemical Co., St. Louis, Mo.). The incubation was continued for 5 hours at 37° C., 5% CO2. Supernatants were harvested, assayed for IL-6 and TNF-α by ELISA as described by the manufacturer (BD Biosciences, USA). Dexamethasone (10 μM) was used as standard for this assay. […] Biological results for both IL-6 and TNFα are indicated in Table 6 and Table 7 respectively.

Row | IC50 [1] | IC50 [9] | IC50 [10] | SMILES | IC50 [2] | IC50 [3] | IC50 [4] | IC50 [5] | IC50 [6] | IC50 [7] | IC50 [8]
1 | 0.01 to 0.3 µM | 0.3 to 3 µM | 1000 to 15000 nM | CN(N=Cc1cnc2ccc(-c3cccnc3)cn12)S(=O)(=O)c1cccc(F)c1 [Example 5, 3-Fluoro-N-methyl-N′-((6-(pyridine-3-yl)imidazo[1,2-a]pyridine-3-yl)methylene)benzenesulfonohydrazide] | 10 to 5000 nM | > 5000 nM | 10 to 5000 nM | 10 to 5000 nM | 10 to 5000 nM | 10 to 5000 nM | 10 to 5000 nM
2 | 0.3 to 3 µM | 0.3 to 3 µM | 1 to 1000 nM | CN(N=Cc1cnc2ccc(-c3cccnc3)cn12)S(=O)(=O)c1ccc(F)cc1 [Example 6, 4-Fluoro-N-methyl-N′-((6-(pyridine-3-yl)imidazo[1,2-a]pyridine-3-yl)methylene)benzenesulfonohydrazide] | 10 to 5000 nM | > 5000 nM | 10 to 5000 nM | 10 to 5000 nM | 10 to 5000 nM | 10 to 5000 nM | 10 to 5000 nM

Continued, compound first:

Row | SMILES | IC50 [1] | IC50 [9] | IC50 [10] | IC50 [2] | IC50 [3] | IC50 [4] | IC50 [5] | IC50 [6] | IC50 [7] | IC50 [8]
3 | Cc1ccc([N+](=O)[O-])cc1S(=O)(=O)N(C)N=Cc1cnc2ccc(-c3cccnc3)cn12 [Example 25] | 0.01 to 0.3 µM | 0.3 to 3 µM | – | 10 to 5000 nM | 10 to 5000 nM | 10 to 5000 nM | 10 to 5000 nM | 10 to 5000 nM | 10 to 5000 nM | 10 to 5000 nM
4 | CN(N=Cc1cnc2ccc(-c3cccnc3)cn12)S(=O)(=O)c1cc(F)cc(F)c1 [Example 16, 3,5-Difluoro-N-methyl-N′-((6-(pyridine-3-yl)imidazo[1,2-a]pyridine-3-yl)methylene) benzenesulfonohydrazide] | 0.01 to 0.3 µM | 0.3 to 3 µM | 1 to 1000 nM | – | – | – | – | – | – | –
5 | Cc1ccc(F)cc1S(=O)(=O)N(C)N=Cc1cnc2ccc(-c3cccnc3)cn12 [Example 21, 5-Fluoro-N, 2-dimethyl-N′-((6-(pyridine-3-yl)imidazo[1,2-a]pyridine-3-yl)methylene) benzenesulfonohydrazide] | 0.01 to 0.3 µM | 0.01 to 0.3 µM | 1 to 1000 nM | 10 to 5000 nM | – | 10 to 5000 nM | 10 to 5000 nM | 10 to 5000 nM | 10 to 5000 nM | 10 to 5000 nM
